Data from article PMC12745361, “Dysadherin/YAP axis fuels stem plasticity and immune escape in liver cancer” (Signal Transduction and Targeted Therapy, 2025).

What was measured:
Assay type in all cases: cell-based, human
PLC/PRF/5 cells [1] = test: Immunoblot of FAK/YAP signalling and pluripotency factors in dysadherin-OE PLC/PRF/5 cells
Method: (§1) Cells were lysed in RIPA buffer for 20 minutes on ice, and protein concentrations were measured using a bicinchoninic acid (BCA) assay kit (Thermo Fisher Scientific). The proteins were denatured with SDS (Sigma‒Aldrich) and by boiling at 95 °C for 5 minutes. Equal amounts (10 µg) were resolved by 10% SDS-PAGE and transferred to PVDF membranes (Millipore, Burlington, MA, USA). The membranes were blocked with 10% bovine serum albumin (Sigma‒Aldrich) and incubated overnight at 4 °C with the indicated primary antibodies. […] After washing, membranes were incubated with HRP-conjugated secondary antibodies, and signals were developed using SuperSignal™ West Dura Substrate (Thermo Fisher Scientific) and visualized using a Digital 8 Imaging System (ProteinSimple, San Jose, CA, USA). The antibodies used for immunoblot analyses are listed in Supplementary Table S3.

OCT4 promoter = OCT4 promoter luciferase reporter assay; conditions: dysadherin-OE PLC/PRF/5 cells, verteporfin 1.5 μmol/L, 24 h, normalized to β-galactosidase
Method: Luciferase activity driven by the OCT4 promoter was measured using a reporter vector (GeneCopoeia, Rockville, MD, USA). For transfection, plasmid DNA, β-galactosidase control, and Lipofectamine (Sigma-Aldrich) were mixed at 1 μg:1 μg:2 μL in 300 μL of OptiMEM (Thermo Fisher Scientific, Waltham, MA, USA) medium per well. Following transfection, cells were treated with verteporfin (1.5 μmol/L) and incubated for 24 h, after which cell lysates were prepared. Luciferase readout was performed using Renilla luciferase assay system (Promega, Madison, WI, USA) and quantified with a SpectraMax L luminometer (Molecular Devices, San Jose, CA, USA). Relative luminescence values were normalized to β-galactosidase activity.

PLC/PRF/5 cells [2] = test: Clonogenic survival assay, dysadherin-OE PLC/PRF/5; conditions: dysadherin-OE PLC/PRF/5 cells; 200 cells/well, 14 days, n = 3/group
Method: A clonogenic assay was performed as previously described.[43],[44] Briefly, cells were seeded in 12-well plates (200 cells/well) and cultured for 14 days. Colonies >50 μm in diameter were counted after crystal violet staining (n = 3/group).

PLC/PRF/5 cells [3] = test: Immunosuppressive gene expression in dysadherin-OE PLC/PRF/5 cells
Method: Total RNA was isolated using RNAiso reagent (Takara, Shiga, Japan), and purity was confirmed by 260/280 and 260/230 ratios. cDNA templates were synthesized from 0.5 μg of total RNA using the PrimeScriptTM 1st strand cDNA Synthesis Kit (Takara) with random primers. qPCR was performed using Power SYBR Green PCR Master Mix and Step-One Real-time PCR systems (Applied Biosystems, Foster City, CA, USA). The primers used are listed in Supplementary Table S2.

PLC/PRF/5 cells [4] = test: Sorafenib resistance (viability, Annexin V/PI apoptosis) in dysadherin-OE PLC/PRF/5 cells; conditions: dysadherin-OE PLC/PRF/5 cells with sorafenib
Method: The rate of cell apoptosis was quantified using apoptosis assays performed with an Annexin V-Fluorescein isothiocyanate (FITC) Apoptosis Detection Kit I. (BD Biosciences, San Jose, CA, USA). Cells were washed twice with cold PBS to yield single-cell suspensions at a concentration of 1×10⁶ cells/mL. The suspension was transferred to a tube containing 5 µL of FITC, annexin V, and propidium iodide (PI). After gentle vortexing, the mixture was incubated at room temperature for 15 min in the dark. After incubation, 400 µL of 1 x binding buffer was added to each sample prior to flow cytometry analysis. FACS analysis was performed using a BD AccuriTM flow cytometer (BD Biosciences). FACS data were analyzed using FlowJo software (TreeStar, San Carlos, CA, USA) as described in our previous report.

PLC/PRF/5 cells [5] = test: PD-L1 immunoblot in dysadherin-OE PLC/PRF/5 cells
Method: as §1

[6] = test system: Jurkat T cells co-cultured with PLC/PRF/5 cells; test: Jurkat T-cell co-culture assay (CD69 flow cytometry, IFN-γ ELISA); conditions: Jurkat cells co-cultured with dysadherin-OE PLC/PRF/5 cells, CD3/CD28 stimulation, 24 hours
Method: The rate of T-cell activation after co-culture with the HCC cells were evaluated by direct co-culture system. The assay was performed in 24-well plates. HCC cells (1x10^4) were seeded in the plates and cultured for 24 hours to allow attachment. The cells were transfected with or without YAP5SA and treated with or without verteporfin. Following 24 hours of treatment, the tumor cells were incubated for an additional 24 hours before introducing Jurkat cells (4x10^5). After 1hour of stabilization, T-cell activation was induced by adding soluble anti-CD3 (2 μg/mL, eBioscience, San Diego, CA, USA), soluble anti-CD28 (1 μg/mL, eBioscience), and anti-mouse Ig (5 μg/mL, Southern Biotech, Birmingham, AL, USA). After 24 hours of co-culture, the supernatant was collected for an IFN-γ ELISA assay, and Jurkat cells were harvested for FACS analysis to assess T-cell activation. The cells were stained with the PE-cy7 conjugated anti-CD69 antibody in FACS buffer for at least 1hour at 4 °C in the dark and analyzed on BD AccuriTM flow cytometer and data were processed using FlowJo software.
The concentration of IFN-γ in cell-free supernatants was measured using a Human IFN-γ ELISA Kit (R&D Systems, Minneapolis, MN, USA), following the manufacturer’s instructions.

PLC/PRF/5 cells [7] = test: Sphere formation and Aldefluor assays, dysadherin-OE PLC/PRF/5; conditions: dysadherin-OE PLC/PRF/5 cells; sphere formation, Aldefluor, CSC gene expression
Method: The ALDH enzymatic activity of the cells was determined by ALDEFLUOR kit (Stem Cell Technologies, Vancouver, BC, Canada). Flow cytometric detection of cells expressing ALDH was performed. Diethylaminobenzaldehyde (DEAB), a specific ALDH inhibitor, was utilized to stain negative control cells.
To examine their self-renewal ability, cells were seeded at various densities in poly-HEMA-coated plates (Sigma‒Aldrich, St. Louis, MO, USA) under non-adherent, sphere–forming condition. After incubation, spheres were counted and measured (n = 3/group). Sphere viability was assessed using the CellTiter-Blue Cell Viability Assay (Sigma-Aldrich) according to the manufacturer’s instructions. Fluorescence was measured at 560 nm excitation and 590 nm emission using the Varioskan LUX multimode reader (Thermo Fisher Scientific, Waltham, MA, USA).

OCT4 promoter activity increased by dysadherin OE (OCT4 promoter)	Molecule	dysadherin-induced increase in FAK phosphorylation (PLC/PRF/5 cells [1])	dysadherin-induced increase in YAP activation (PLC/PRF/5 cells [1])	dysadherin-induced increase in pluripotency gene expression (PLC/PRF/5 cells [1])	dysadherin OE-induced suppression of LATS1/2 phosphorylation (PLC/PRF/5 cells [1]; treatment with a FAK inhibitor)	clonogenicity (PLC/PRF/5 cells [2])	expression of immunosuppressive genes (PLC/PRF/5 cells [3])	dysadherin OE-induced resistance to sorafenib (PLC/PRF/5 cells [4])	upregulation of PD-L1 expression by dysadherin OE (PLC/PRF/5 cells [5])	YAP activity (PLC/PRF/5 cells [1])	dysadherin OE-induced p-FAK, YAP activation and pluripotency markers (PLC/PRF/5 cells [1]; immunoblot)	dysadherin OE-mediated suppression of CD69 upregulation and IFN-γ release [6]	CSC features (PLC/PRF/5 cells [7])
	COc1ccc([C@H](CC(=O)O)N2CCN(CCCc3ccc4c(n3)NCCC4)C2=O)cn1 [MK-0429]	specifically suppressed	specifically suppressed	specifically suppressed									
	CNC(=O)c1ccccc1Nc1cc(Nc2ccc(N3CCOCC3)cc2OC)ncc1C(F)(F)F [PND-1186]	specifically suppressed	specifically suppressed	specifically suppressed	reversed								
suppressed	Verteporfin					suppressed	markedly reduced	reversed	reversed	decreased	reversed these effects	reversed	suppressed
